Measured values from patent US20030180723A1, “Cloning of novel gene sequences expressed and repressed during winter dormancy in the apical buds of tea ( Camellia sinensis L. (O.) Kuntze) bush” (priority 2001, published 2003).

Tested on: dormant apical buds of tea bush
Assay: Forced break of bud dormancy by GA3 on a winter-dormant tea bush
Assay type: in vivo, Camellia sinensis L. (O.) Kuntze
Details: out of 20 buds; 5 μM in 5% ethanol, applied onto each dormant bud with a paint brush at least 4 times on the same day, December; bud length and perimeter as indicator of growth
Experimental: Above Example 6 identified 4 differentially expressed genes cloned by us. To further correlate these differentially expressed genes with the phenomenon of dormancy, the dormant bush during winter month was forced to break bud dormancy using a plant growth regulator gibberrellic acid (hereinafter referred to GA3). GA3 was dissolved in 5% ethanol to yield a final concetration of 5 μM. The solution was applied onto each dormant bud with the help of a paint brush at least 4 times on the same day during the month of December. Bud length and its perimeter was recorded regularly as an indicator of its growth. […] These were termed as forced ND apical buds. These were collected and stored as mentioned in Example 1 and used for the purpose of RNA isolation to be used in northern analysis.

## C=C1C[C@]23C[C@@]1(O)CC[C@H]2[C@@]12C=C[C@H](O)[C@@](C)(C(=O)O1)[C@H]2[C@@H]3C(=O)O [GA3, gibberrellic acid]
  buds that showed increase in growth (dormancy break): 10 buds
